Test [1] concerns the target Lysosomal acid glucosylceramidase (Homo sapiens, UniProt P04062). Put plainly: Dose response cell-based high throughput screening assay to identify enhancers of beta-glucosidase activity. [Related pubchem assays: 784 ]. The class given is functional.
Test [2] deals with Acyl-homoserine lactone acylase PvdQ (Pseudomonas aeruginosa (strain LESB58), UniProt Q9I194). The experiment in a line: P. aeruginosa PvdQ acylase inhibitors, dose response, biochemical, fluorescence, plate reader and imaging, cherry-picks (AID 493231).
Acyl-homoserine lactone acylase PvdQ, sequence (Q9I194 24-193 limits assumed): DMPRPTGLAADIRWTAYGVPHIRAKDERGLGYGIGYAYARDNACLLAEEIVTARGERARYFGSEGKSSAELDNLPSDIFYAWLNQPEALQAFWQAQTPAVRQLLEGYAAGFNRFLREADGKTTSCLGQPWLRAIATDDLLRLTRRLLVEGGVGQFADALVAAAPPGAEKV
Acyl-homoserine lactone acylase PvdQ, sequence (Q9I194 217-762 limits assumed): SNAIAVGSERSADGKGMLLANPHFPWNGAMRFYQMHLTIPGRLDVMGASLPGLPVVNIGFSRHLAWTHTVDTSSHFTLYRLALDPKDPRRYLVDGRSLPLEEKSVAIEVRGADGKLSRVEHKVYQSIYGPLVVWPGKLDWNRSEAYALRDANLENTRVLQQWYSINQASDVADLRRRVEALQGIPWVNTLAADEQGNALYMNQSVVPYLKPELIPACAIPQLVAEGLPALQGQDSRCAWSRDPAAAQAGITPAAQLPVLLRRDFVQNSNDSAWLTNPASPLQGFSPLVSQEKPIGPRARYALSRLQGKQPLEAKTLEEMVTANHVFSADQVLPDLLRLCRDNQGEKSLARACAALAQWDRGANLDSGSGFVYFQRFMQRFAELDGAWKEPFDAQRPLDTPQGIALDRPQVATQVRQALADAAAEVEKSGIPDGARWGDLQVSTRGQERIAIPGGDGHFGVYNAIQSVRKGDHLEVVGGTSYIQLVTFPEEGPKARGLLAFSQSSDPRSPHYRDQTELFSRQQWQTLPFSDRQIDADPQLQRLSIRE
The target of another test is T1, Leucine aminopeptidase (Plasmodium falciparum 3D7, UniProt Q8IL11).
T1 sequence (Q8IL11 whole entry): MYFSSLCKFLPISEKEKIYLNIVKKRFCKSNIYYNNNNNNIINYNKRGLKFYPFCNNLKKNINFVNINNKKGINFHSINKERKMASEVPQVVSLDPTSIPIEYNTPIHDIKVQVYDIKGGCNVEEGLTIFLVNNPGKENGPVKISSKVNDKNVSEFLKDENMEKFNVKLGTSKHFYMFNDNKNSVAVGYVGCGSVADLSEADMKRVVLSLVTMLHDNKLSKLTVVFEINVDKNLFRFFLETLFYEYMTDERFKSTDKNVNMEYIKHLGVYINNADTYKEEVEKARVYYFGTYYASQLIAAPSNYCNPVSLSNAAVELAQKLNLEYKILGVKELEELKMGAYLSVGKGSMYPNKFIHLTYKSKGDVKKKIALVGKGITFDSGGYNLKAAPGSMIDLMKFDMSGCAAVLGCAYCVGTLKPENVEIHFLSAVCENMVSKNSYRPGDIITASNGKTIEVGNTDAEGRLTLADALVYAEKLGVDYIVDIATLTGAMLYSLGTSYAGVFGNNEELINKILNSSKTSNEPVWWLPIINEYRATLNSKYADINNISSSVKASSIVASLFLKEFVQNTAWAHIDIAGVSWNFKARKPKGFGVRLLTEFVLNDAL
Put plainly: P. falciparum M17LAP inhibitors, primary screen, biochemical, fluorogenic H-Leu-NHMec substrate, 1536-well (AID 1619). The class given is functional.

In test [3] the target is Photoreceptor-specific nuclear receptor (Homo sapiens, UniProt Q9Y5X4). Format: functional.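 Also: potency for compounds that break the NR2E3 corepressor complex and count as activators.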
Photoreceptor-specific nuclear receptor, sequence (Q9Y5X4 whole entry): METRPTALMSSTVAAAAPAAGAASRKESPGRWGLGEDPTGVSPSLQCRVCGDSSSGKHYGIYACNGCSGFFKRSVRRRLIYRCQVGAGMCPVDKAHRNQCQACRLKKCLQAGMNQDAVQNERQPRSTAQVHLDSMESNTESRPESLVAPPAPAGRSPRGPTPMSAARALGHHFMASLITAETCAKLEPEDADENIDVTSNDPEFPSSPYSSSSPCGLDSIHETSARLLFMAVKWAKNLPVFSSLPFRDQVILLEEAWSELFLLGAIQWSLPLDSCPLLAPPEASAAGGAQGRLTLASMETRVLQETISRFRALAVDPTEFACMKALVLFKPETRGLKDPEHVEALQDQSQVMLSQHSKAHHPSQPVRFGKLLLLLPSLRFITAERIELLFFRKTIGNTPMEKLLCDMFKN
For test [4], the target named is Peroxisome proliferator-activated receptor gamma/Nuclear receptor coactivator 2 (Homo sapiens, UniProt P37231). Put plainly: TR-FRET dose response biochemical High Throughput Screening assay for agonists of the steroid receptor coactivator 2 (SRC-2) recruitment by the peroxisome proliferator-activated receptor gamma (PPAR gamma): non-selective agonists. [Related pubchem assays: 1297, 1032 ]. The class given is functional. Background: In TR-FRET formats the signal depends on donor and acceptor labels being close together.
Peroxisome proliferator-activated receptor gamma/Nuclear receptor coactivator 2, sequence (P37231 whole entry): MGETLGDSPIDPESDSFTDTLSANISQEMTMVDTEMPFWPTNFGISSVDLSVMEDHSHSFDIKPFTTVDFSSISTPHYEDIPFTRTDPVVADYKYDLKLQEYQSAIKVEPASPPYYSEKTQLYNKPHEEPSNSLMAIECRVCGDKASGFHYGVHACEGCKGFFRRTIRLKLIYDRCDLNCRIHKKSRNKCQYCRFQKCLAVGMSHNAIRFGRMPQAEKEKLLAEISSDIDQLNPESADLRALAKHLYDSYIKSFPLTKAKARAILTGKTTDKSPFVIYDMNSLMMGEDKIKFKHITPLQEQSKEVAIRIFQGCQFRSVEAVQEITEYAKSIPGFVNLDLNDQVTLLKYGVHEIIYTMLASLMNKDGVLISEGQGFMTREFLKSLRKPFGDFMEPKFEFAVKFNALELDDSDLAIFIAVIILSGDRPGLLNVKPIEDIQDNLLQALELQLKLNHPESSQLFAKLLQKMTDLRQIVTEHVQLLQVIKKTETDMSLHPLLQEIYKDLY
Peroxisome proliferator-activated receptor gamma/Nuclear receptor coactivator 2, sequence (Q15596 whole entry, further chain): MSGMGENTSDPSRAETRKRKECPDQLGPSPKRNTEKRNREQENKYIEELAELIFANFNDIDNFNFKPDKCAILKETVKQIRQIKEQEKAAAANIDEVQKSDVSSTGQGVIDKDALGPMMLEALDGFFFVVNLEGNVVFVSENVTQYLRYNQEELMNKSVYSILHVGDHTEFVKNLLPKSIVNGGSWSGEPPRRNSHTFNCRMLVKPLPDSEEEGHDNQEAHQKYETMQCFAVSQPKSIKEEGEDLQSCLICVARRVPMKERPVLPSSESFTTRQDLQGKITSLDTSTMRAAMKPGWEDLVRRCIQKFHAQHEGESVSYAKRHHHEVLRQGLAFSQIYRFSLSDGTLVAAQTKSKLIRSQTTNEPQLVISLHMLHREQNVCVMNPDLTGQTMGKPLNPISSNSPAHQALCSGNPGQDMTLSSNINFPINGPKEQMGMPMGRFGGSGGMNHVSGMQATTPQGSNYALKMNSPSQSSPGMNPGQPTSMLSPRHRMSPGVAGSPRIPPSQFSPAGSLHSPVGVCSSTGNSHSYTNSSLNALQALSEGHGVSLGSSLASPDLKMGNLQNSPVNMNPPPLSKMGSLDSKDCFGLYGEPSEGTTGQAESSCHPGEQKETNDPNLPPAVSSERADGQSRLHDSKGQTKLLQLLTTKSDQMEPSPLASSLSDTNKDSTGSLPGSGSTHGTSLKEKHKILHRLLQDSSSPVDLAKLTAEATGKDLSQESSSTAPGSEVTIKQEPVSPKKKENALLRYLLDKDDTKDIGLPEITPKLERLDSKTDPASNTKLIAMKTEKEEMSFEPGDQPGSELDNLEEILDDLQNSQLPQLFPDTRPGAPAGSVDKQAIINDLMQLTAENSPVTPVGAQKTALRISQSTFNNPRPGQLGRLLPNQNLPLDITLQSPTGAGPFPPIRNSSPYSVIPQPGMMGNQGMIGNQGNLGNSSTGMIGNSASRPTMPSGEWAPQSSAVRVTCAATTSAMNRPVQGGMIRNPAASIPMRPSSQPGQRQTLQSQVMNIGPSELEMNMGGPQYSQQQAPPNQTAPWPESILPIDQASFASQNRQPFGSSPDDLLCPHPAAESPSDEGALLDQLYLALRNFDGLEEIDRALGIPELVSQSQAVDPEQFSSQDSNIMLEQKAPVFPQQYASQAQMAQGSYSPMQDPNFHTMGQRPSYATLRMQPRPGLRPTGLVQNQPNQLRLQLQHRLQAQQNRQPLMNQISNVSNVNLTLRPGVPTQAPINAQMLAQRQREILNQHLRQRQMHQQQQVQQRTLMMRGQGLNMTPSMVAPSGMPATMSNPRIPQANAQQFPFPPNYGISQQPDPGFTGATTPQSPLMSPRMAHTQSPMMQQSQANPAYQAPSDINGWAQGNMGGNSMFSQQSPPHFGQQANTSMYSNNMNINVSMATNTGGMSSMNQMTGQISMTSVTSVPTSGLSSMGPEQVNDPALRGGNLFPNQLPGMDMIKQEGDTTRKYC

In test [5] the target is Peroxisome proliferator-activated receptor gamma/Nuclear receptor coactivator 1 (Homo sapiens, UniProt P37231). The experiment in a line: TR-FRET dose response biochemical High Throughput Screening assay for agonists of the steroid receptor coactivator 1 (SRC-1) recruitment by the peroxisome proliferator-activated receptor gamma (PPAR gamma): non-selective agonists. [Related pubchem assays (depositor defined):AID1300, AID1808, AID504735, AID631]. The class given is protein assay.

Test [6] concerns the target Peroxisome proliferator-activated receptor gamma/Nuclear receptor coactivator 3 (Homo sapiens, UniProt P37231). Put plainly: TR-FRET dose response biochemical High Throughput Screening assay for agonists of the steroid receptor coactivator 3 (SRC-3) recruitment by the peroxisome proliferator-activated receptor gamma (PPAR gamma): non-selective agonists. [Related pubchem assays: 1301 (Confirmation screen.), 1048 (Primary screen.)]. The class given is functional.

Test [7] concerns the target Peroxisome proliferator-activated receptor gamma/Nuclear receptor corepressor 2 (Homo sapiens, UniProt P37231+Q9Y618). Format: functional.
For test [8], the target named is Eukaryotic translation initiation factor 4H (Homo sapiens, UniProt Q15056). Put plainly: human eIF4H binding inhibitors, primary screen, translation initiation inhibitor project, biochemical, uHTS, fluorescence polarization (AID 2012). A general note: In fluorescence polarisation assays a small probe gives low polarisation when free and higher when bound to something large.

Test [9] has as its target Polyadenylate-binding protein 1 (Homo sapiens, UniProt P11940). Put plainly: PABP poly(A) RNA binding inhibitors, primary screen, biochemical, fluorescence polarization, uHTS (AID 2014).
Test [10] concerns the target T2, Heat shock factor protein 1 (Mus musculus, UniProt P38532).
T2 sequence (P38532 whole entry): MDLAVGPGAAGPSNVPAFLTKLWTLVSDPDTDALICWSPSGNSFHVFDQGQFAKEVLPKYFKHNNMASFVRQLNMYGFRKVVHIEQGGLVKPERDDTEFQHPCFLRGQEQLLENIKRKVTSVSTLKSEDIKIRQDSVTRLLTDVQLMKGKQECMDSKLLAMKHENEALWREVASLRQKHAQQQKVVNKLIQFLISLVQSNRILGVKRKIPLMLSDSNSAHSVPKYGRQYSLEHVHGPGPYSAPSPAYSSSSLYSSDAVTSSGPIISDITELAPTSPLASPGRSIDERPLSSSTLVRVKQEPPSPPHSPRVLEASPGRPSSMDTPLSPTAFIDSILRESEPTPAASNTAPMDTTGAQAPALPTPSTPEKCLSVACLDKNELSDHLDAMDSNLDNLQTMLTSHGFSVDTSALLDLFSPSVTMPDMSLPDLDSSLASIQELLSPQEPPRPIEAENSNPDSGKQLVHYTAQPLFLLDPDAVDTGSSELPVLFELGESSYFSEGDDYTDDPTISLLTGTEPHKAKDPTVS
Put plainly: inhibition of MG132-induced HSE-luciferase signal, confirmation, cell-based, NIH3T3, luminescence, dose retest (AID 2382).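 Also: NIH3T3 fibroblasts with HSF1-driven luciferase reporter stressed by proteasome inhibitor MG132; luminescence from HSF1-driven luciferase expression after 8 hours of MG132 stress.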 Format: functional.

Another test has as its target Procathepsin L (Homo sapiens, UniProt P07711).
A further test deals with Aspartyl aminopeptidase (Plasmodium falciparum 3D7, UniProt Q8I2J3).
Another test deals with Cytochrome P450 2C9 (Homo sapiens, UniProt P11712). Particulars: Potency.
Cytochrome P450 2C9, sequence (P11712 whole entry): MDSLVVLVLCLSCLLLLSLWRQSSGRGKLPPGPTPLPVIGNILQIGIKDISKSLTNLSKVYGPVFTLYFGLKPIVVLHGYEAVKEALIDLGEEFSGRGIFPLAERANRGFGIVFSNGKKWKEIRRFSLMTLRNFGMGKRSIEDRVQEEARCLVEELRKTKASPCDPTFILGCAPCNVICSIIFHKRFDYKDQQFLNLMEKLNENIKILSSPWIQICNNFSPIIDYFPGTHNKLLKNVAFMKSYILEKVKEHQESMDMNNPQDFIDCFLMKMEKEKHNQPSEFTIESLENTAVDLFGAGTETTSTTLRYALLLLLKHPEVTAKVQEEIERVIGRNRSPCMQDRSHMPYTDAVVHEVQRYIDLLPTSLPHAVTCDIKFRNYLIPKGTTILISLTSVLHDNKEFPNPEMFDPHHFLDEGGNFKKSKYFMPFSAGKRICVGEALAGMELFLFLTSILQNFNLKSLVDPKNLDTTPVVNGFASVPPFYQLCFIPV
The target of another test is Cytochrome P450 3A4 (Homo sapiens, UniProt P08684). Particulars: Potency.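 Also: confirmatory qHTS run detecting inhibitors and substrates of CYP3A4.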
Test [11] is described as follows: HEp-2 cell cytotoxicity, dose response, cytotoxicity control for RSV inhibitor project, HTS (AID 2410). The following applies: human respiratory syncytial virus. The class given is functional.
Test [12] can be described thus: Counterscreen for IDE inhibitors: Luminescence-based cell-based high throughput dose response assay to identify compounds that are cytotoxic to HEK cells. [Related pubchem assays: 434962 (Primary screen (IDE inhibitors in singlicate)), 449730 (Counterscreen (Cytotoxicity in triplicate)), 435028 (Confirmation (IDE inhibitors in triplicate)) …. The class given is functional. Particulars: HEK293. Background: The purpose of a counterscreen is to sort out artefacts and off-target activity.

The next test addresses T3, Insulin-degrading enzyme (Homo sapiens, UniProt P14735).
T3 sequence (P14735 whole entry): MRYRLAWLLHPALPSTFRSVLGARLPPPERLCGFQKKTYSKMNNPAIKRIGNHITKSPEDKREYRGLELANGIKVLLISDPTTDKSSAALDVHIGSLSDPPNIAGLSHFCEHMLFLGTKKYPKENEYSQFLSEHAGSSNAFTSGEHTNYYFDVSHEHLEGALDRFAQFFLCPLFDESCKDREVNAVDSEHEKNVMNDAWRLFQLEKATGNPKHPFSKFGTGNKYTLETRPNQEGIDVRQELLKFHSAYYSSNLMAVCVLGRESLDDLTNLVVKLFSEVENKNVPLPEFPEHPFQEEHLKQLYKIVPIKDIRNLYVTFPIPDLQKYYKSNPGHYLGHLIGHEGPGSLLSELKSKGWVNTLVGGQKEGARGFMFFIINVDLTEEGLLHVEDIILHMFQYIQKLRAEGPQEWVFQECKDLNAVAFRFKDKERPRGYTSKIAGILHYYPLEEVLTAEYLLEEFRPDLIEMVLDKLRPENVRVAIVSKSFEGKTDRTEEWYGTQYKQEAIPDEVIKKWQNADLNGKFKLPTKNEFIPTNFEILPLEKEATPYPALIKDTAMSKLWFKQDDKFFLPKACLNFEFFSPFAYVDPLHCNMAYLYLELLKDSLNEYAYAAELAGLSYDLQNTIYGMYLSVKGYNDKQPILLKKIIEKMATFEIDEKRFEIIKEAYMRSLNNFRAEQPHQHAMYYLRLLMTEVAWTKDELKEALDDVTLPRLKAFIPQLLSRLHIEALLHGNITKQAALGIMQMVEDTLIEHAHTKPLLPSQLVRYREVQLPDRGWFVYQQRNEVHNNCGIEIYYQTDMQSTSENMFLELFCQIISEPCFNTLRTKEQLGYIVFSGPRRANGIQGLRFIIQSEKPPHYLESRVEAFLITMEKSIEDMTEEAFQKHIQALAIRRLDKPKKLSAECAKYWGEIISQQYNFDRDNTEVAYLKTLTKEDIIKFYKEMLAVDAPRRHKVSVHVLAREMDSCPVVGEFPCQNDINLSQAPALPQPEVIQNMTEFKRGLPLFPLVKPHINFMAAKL
The experiment in a line: Dose Response: Fluorescence polarization-based cell-based high throughput dose response assay for inhibitors of insulin-degrading enzyme (IDE). [Related pubchem assays: 434962 (Primary screen (IDE inhibitors in singlicate)), 449730 (Counterscreen (Cytotoxicity in triplicate)), 435028 (Confirmation (IDE inhibitors in triplicate)), 434984 (Summary …. The class given is functional.

Structures are written as SMILES. The source made the active and inactive calls. Where only a bound is given, the exact number is not on record here.

The text below walks through data of ChEMBL document CHEMBL1201862, “PubChem BioAssay data set” (2004).

Lysosomal acid glucosylceramidase, sequence (P04062 whole entry): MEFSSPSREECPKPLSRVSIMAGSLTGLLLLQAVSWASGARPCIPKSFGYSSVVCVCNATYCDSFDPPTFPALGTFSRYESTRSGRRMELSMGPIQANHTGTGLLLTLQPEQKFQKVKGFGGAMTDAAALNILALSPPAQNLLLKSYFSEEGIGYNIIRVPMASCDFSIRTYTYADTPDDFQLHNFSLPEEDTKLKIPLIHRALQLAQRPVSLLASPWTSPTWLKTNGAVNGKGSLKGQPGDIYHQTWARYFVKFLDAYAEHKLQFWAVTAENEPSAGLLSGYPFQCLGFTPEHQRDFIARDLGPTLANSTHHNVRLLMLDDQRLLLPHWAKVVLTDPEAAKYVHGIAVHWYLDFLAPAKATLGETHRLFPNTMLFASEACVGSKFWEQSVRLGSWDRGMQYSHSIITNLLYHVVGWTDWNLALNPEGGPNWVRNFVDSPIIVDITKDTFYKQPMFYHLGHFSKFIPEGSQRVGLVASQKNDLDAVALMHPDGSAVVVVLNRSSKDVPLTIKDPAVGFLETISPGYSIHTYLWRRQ
Polyadenylate-binding protein 1, sequence (P11940 whole entry): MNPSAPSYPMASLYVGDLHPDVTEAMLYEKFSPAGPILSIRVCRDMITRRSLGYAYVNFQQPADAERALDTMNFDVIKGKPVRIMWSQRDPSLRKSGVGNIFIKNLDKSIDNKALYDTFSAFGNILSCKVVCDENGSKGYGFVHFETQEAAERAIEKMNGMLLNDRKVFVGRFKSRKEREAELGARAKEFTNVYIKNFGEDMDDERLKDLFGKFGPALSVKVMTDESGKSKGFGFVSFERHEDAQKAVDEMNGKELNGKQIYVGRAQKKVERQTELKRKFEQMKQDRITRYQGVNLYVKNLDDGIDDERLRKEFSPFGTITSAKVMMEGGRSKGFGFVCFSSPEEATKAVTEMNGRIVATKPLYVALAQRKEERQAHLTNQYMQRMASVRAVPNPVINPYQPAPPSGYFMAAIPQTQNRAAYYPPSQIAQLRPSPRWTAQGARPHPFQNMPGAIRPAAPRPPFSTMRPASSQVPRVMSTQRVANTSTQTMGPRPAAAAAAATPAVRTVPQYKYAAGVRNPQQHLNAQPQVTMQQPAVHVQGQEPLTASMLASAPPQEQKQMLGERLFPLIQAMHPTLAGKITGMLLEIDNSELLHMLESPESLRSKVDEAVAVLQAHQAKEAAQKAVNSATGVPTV

As usually defined, the EC50 is the concentration that produces a half-maximal response. On to `Cc1cccn2c(=O)c(/C=N/c3ccc(Cl)cc3)c(NCCO)nc12`, for which the EC50 in [1] was > 50 µM (not active).

What is called AC50 is the concentration at which the activity in the assay is half-maximal. As to `CCOC(=O)c1ccc(N2Cc3ccccc3C2)cc1O`, in test [2], the AC50 is > 100 µM (inactive).

By IC50 is commonly meant the point on the concentration scale where inhibition reaches its midpoint. Turning to `Cn1c(=S)[nH]c2c(c1=O)C(C)(C)Cc1ccccc1-2`, the 50% inhibitory concentration (IC50) was 1.9 µM (active) at Leucine aminopeptidase, > 39.8 µM (not active) in test [3] and 3.98 µM (active) in [7]. Also, the EC50 was > 79.4 µM (not active) in test [4], > 79.4 µM (inactive) in test [5] and > 79.4 µM (not active) in [6].

Regarding `Cn1c(SCC(=O)NC(C)(C)C)nnc1-c1cccc(NC(=O)c2ccccc2F)c1`, the IC50 in [8] was > 100 µM (inactive); in test [9], 7.07 µM (active).

As to `Cc1c(C(=O)c2no[n+]([O-])c2C(=O)c2cnn(C)c2C)cnn1C`, the concentration giving a half-maximal response (EC50) in test [10] was 5.9 µM (active). Moreover, the IC50 is > 59.6 µM (not active) against Procathepsin L and 1.58 µM (active) at Aspartyl aminopeptidase.

With `C[C@]12C=CC(=O)C=C1CC[C@@H]1[C@H]3C[C@@H](O)[C@](O)(C(=O)CO)[C@]3(C)C[C@H](O)[C@]12F`, the AC50 at Cytochrome P450 2C9 is 25.1 µM (inconclusive).

`Nc1ccc(Cl)cc1Cl`: the AC50 at Cytochrome P450 3A4 is 31.6 µM (inconclusive).

Broadly, the CC50 is the concentration that lowers cell viability or growth by half. For `Cc1ccc(NC2=NC(=O)/C(=C/c3cn(C)c4ccccc34)S2)cc1C`, the CC50 in test [11] was 6.5 µM (active). In addition, the IC50 in test [12] is 16.5 µM (not active); against Insulin-degrading enzyme it was 18.4 µM (not active).
